“Also recorded” adds a separate entry of the source. Ends that are not written are not given here.
Test system: zonulin receptor
Experiment: In situ immunofluorescence microscopy of lung tissue sections with FITC-labeled peptides
Assay type: binding
Details: mouse lung sections (4 μm, frozen blocks) incubated with FITC-labeled peptide; FIG. 1
Description: In situ immunofluorescence microscopy was used to establish the distribution of the zonulin receptor within the respiratory tract. Lung tissue sections (4 μm) made from frozen blocks were placed immediately on plain uncoated slides and incubated with either FITC-labeled FZI/0 (the zonulin synthetic peptide inhibitor that specifically binds to the zonulin receptor described in U.S. Pat. No. 6,458,925, Gly-Gly-Val-Leu-Val-Gln-Pro-Gly SEQ ID NO: 15) or FITC-labeled FZI/1 (a scrambled peptide described in U.S. Pat. No. 6,458,925, Val-Gly-Val-Leu-Gly-Arg-Pro-Gly SEQ ID NO: 25) The results are shown in FIG. 1.

Sequence	immunofluorescence signal of FITC-labeled peptide bound to lung tissue sections
GGVLVQPG [FZI/0]	Clusters of immunofluorescent FZI/0 particles were visualized; also recorded: Cluster of immunofluorescence FZI/0 particles were visualized
VGVLGRPG [FZI/1, a scrambled peptide described in U.S. Pat. No. 6,458,925, reference compound]	no signal was detected

From patent US20160106802A1, “METHODS OF DIAGNOSING AND TREATING ASTHMA” (Alba Therapeutics Corporation, priority 2006, published 2016)
